Patent US11833137B2, “Substituted chromenones, IRE1 inhibitors, and methods of using same” (The Wistar Institute, priority 2018, dated 2023)
Entries after “also recorded” stand apart in the source; their conditions may differ.

Tests used:
[1] = system: XBP-1s expression, 5TGM1 cells; test: XBP-1s immunoblot in 5TGM1 multiple myeloma cells; assay type: cell-based, mouse; conditions: for suppression of XBP-1s expression, long term: 10 μM for a course of 3 days
Description: 5TGM1 mouse multiple myeloma cells, primary mouse B cells, primary mouse Eμ-TCL1 CLL cells, and human CLL cell lines (MEC2 and WaC3) were cultured at 37° C. in a 5% CO2 incubator using RPMI 1640 media (Gibco) supplemented with 10% heat-inactivated FBS, 2 mM L-glutamine, 100 U/mL penicillin G sodium, 1 mM sodium pyruvate, 0.1 mM non-essential amino acids, 100 μg/mL streptomycin sulfate and 0.1 mM β-mercaptoethanol (β-ME).
Cells were lysed using RIPA buffer (10 mM Tris-HCl, pH 7.4, 150 mM NaCl, 1% NP-40, 0.5% sodium deoxycholate, 0.1% SDS, and 1 mM EDTA) supplemented with protease inhibitors (Roche). Protein concentrations were determined by BCA assays (Pierce).
Samples were boiled in SDS-PAGE sample buffer (62.5 mM Tris-HCl, pH 6.8, 2% SDS, 10% glycerol, 0.1% bromophenol blue) with β-ME and analyzed by SDS-PAGE. Proteins were transferred to nitrocellulose membranes, blocked in 5% nonfat milk (wt/vol in PBS), and immunoblotted with indicated primary antibodies and appropriate horseradish peroxidase-conjugated secondary antibodies. Immunoblots were developed using Western Lighting Chemiluminescence Reagent (PerkinElmer).
To develop inhibitors with improved potency to target the IRE1/XBP-1 pathway, tricyclic chromenone-based IRE1 RNase inhibitors with different amine group (R^1) were synthesized and compared: allyloxycarbonyl (alloc) in B-H09 (1), —H in C-B06 (2), and —CH3 in C-D06 (3) (FIG. 1A). 5TGM1 multiple myeloma cells were chosen to evaluate inhibitory effects of these inhibitors because they have constitutively activated IRE1/XBP-1 pathways.

5TGM1 cells = test: Cell proliferation XTT assay, 5TGM1; assay type: cell-based, mouse; conditions: 20 μM for a course of 3 days
Description: 5TGM1 cells were suspended in phenol red-free RPMI media, seeded in 96-well cell culture plates, and treated with indicated IRE1 inhibitors (20 μM, unless indicated otherwise). At indicated time points, cells were spun down and cell proliferation was assessed by XTT assays (Roche) according to the manufacturer's instructions. Briefly, 50 μl XTT labeling reagent, 1 μl electron-coupling reagent, and 100 μl phenol red-free RPMI media were combined and applied to each well of the 96-well plates. Cells were incubated for 4 h in a CO2 incubator to allow for the yellow tetrazolium salt XTT to be cleaved by mitochondrial dehydrogenases of metabolically active cells to form the orange formazan dye, which can be quantified at 492 nm using a BioTek SYNERGY™ NEO2 Multimode Reader.

[2] = Compound degradation HPLC assay; assay type: physicochemical; conditions: 37° C.
Description: A 20 mM DMSO stock solution of analyte compounds (7, 8, D-F07, PC-D-F07 and TC-D-F07) were diluted to 400 μM with PBS, pH 7.4, or to 800 μM with RMPI plus 10% FBS culture media (experiments with TC-D-F07 were performed using RPMI without FBS). After incubation at 37° C., aliquots at various time points were injected onto an analytical HPLC instrument and the peaks integrated (UV monitored at 220 nm). Intact compound relative to t=0 was plotted as a function of time.

Compound	inhibition of XBP-1s expression, short term ([1]; 2.5 μM for 1, 2 or 4 h)	inhibition of XBP-1s expression ([1]; 10 μM for 0, 3, 6, 12 or 24 h)	suppression of XBP-1s expression, long term [1]	overall comparison of inhibition of IRE-1 / XBP-1s expression in whole cells ([1]; summary statement)	concentration that effectively blocks XBP-1s expression ([1]; 24 h)	growth inhibition / cytotoxicity (XTT) (5TGM1 cells)	stability (HPLC) ([2]; PBS, 48 h)	stability (HPLC) ([2]; RPMI media, 96 h)	suppression of XBP-1s after removal of compound from media ([1]; 10 μM 4 h, washed, UV 10 min, 8 h culture)
CN1CCc2c(c(=O)oc3c(C=O)c(O)ccc23)C1 [Compound 3]	began to lose its inhibitory effect within 4 h	rapidly inhibited the expression of XBP-1s; also recorded: much better long-term inhibitory activities than 1	recovered significantly in cells treated for 2 days	most efficient aldehyde compounds in inhibiting IRE-1 in intact cells					
CN1CCc2c(c(=O)oc3c(C4OCCCO4)c(O)ccc23)C1 [Compound 7, 7-(1,3-dioxan-2-yl)-8-hydroxy-3-methyl-1,2,3,4-tetrahydro-5H-chromeno[3,4-c]pyridin-5-one]			continuously suppressed even after 3-day treatment; also recorded: more effective than 8 in suppressing the expression of XBP-1s for a longer term		10 µM	more potent than their respective aldehyde counterparts			
COc1cc2c3c(c(=O)oc2c(C2OCCCO2)c1OC(C)c1ccc(C(=O)OCC[Si](C)(C)C)cc1[N+](=O)[O-])CN(C)CC3 [PC-D-F07, 2-(trimethylsilyl)ethyl 4-(1-((7-(1,3-dioxan-2-yl)-9-methoxy-3-methyl-5-oxo-1,3,4,5-tetrahydro-2H-chromeno[3,4-c]pyridin-8-yl)oxy)ethyl)-3-nitrobenzoate]							completely stable	completely stable	suppression of XBP-1s expression
